Measured values as given in patent publication US9663534B2, “Fused bicyclic isoxazolines as inhibitors of cholesterol ester transfer protein” (Merck Sharp & Dohme Corp., priority 2013, dated 2017).

Molecular target: T1, endogenous CETP from serum (Homo sapiens, UniProt P11597)
T1 construct: yielding a concentration of approximately 15 nM endogenous CETP in the assay; from tissue; host or cells: human serum
T1 sequence (P11597 18-493): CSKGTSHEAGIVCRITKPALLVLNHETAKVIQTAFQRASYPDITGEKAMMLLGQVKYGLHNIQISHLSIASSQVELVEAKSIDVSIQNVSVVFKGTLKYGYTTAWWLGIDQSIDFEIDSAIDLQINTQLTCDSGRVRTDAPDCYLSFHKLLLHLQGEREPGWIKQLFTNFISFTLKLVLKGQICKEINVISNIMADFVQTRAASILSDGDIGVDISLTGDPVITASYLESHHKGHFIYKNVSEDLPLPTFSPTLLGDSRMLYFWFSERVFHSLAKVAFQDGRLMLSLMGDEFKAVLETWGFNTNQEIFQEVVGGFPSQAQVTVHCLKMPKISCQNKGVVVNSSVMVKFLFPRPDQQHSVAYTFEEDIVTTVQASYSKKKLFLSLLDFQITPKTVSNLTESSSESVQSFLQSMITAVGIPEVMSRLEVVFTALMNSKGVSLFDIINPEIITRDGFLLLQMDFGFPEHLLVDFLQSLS
Assay: RTA assay of CETP-catalyzed CE and TG transfer in 95% human serum (95% RTA)
Format: biochemical
Conditions: RTA assay in 95% human serum; read-out: IC50 (nM) RTA with 95% HS
With `COc1ccc(CCC(=O)O)cc1-c1ccc(C(F)(F)F)cc1[C@@H]1CC[C@@H]2C1=NO[C@@H]2c1cc(C(F)(F)F)cc(C(F)(F)F)c1` [Example 4, 3-[2′-{(3S,3aR,6S)-3-[3,5-bis(trifluoromethyl)phenyl]-3a,4,5,6-tetrahydro-3H-cyclopenta[c]isoxazol-6-yl}-6-methoxy-4′-(trifluoromethyl)biphenyl-3-yl]propanoic acid] the IC50 was 3790 nM.
For `COc1ccc(-c2ccc(C(=O)O)cc2C)cc1-c1ccc(C(F)(F)F)cc1[C@@H]1CC[C@@H]2C1=NO[C@@H]2c1cc(C(F)(F)F)cc(C(F)(F)F)c1` [Example 5, 2″-{(3S,3aR,6S)-3-[3,5-bis(trifluoromethyl)phenyl]-3a,4,5,6-tetrahydro-3H-cyclopenta[c]isoxazol-6-yl}-4′-methoxy-2-methyl-4″- (trifluoromethyl)-1,1′:3′,1″- terphenyl-4-carboxylic acid], the IC50 was 145 nM.
In the case of `COc1ccc([C@H]2CC[C@H](C(=O)O)CC2)cc1-c1ccc(C(F)(F)F)cc1[C@@H]1CC[C@@H]2C1=NO[C@@H]2c1cc(C(F)(F)F)cc(C(F)(F)F)c1` [Example 6, trans-4-[2′-{(3S,3aR,6S)-3-[3,5-bis(trifluoromethyl)phenyl]-3a,4,5,6-tetrahydro-3H-cyclopenta[c]isoxazol-6-yl}-6-methoxy-4′-(trifluoromethyl)biphenyl-3-yl]cyclohexanecarboxylic acid], the IC50 is reported as 383 nM.
`COc1ncc(-c2ccc(C(=O)O)cc2C)cc1-c1ccc(C(F)(F)F)cc1[C@@H]1CC[C@@H]2C1=NO[C@@H]2c1cc(F)cc(C(F)(F)F)c1` [Example 7, 4-(5-(2-((3S,3aR,6S)-3-(3-fluoro-5-(trifluoromethyl)phenyl)-3a,4,5,6-tetrahydro-3H-cyclopenta[c]isoxazol-6-yl)-4-(trifluoromethyl)phenyl)-6-methoxypyridin-3-yl)-3-methylbenzoic acid] gave an IC50 of 57 nM.
Work on `COc1ccc(-c2ccc(C(=O)O)cc2C)cc1-c1ccc(C(F)(F)F)cc1[C@@H]1CC[C@@H]2C1=NO[C@@H]2c1cc(F)cc(C(F)(F)F)c1` [Example 8, 2″-((3S,3aR,6S)-3-(3-fluoro-5-(trifluoromethyl)phenyl)-3a,4,5,6-tetrahydro-3H-cyclopenta[c]isoxazol-6-yl)-4′-methoxy-2-methyl-4″- (trifluoromethyl)-[1,1′:3′,1″- terphenyl]-4-carboxylic acid] yielded an IC50 of 36 nM.
Work on `COc1ncc(-c2ccc(C(=O)O)cc2C)cc1-c1ccc(C(F)(F)F)nc1[C@@H]1CC[C@@H]2C1=NO[C@@H]2c1cc(C(F)(F)F)cc(C(F)(F)F)c1` [Example 9, 4-[2′-{3-[3,5-bis(trifluoromethyl)phenyl]-3a,4,5,6-tetrahydro-3H-cyclopenta[c]isoxazol-6-yl}-2 methoxy-6′-(trifluoromethyl)-3,3′-bipyridin-5-yl]-3-methylbenzoic acid] yielded an IC50 of 287 nM.

Same assay, conditions: RTA assay in 95% human serum; read-out: IC50 RTA (95% HS)
`COc1ncc(-c2ccc(C(=O)O)cc2C)cc1-c1ccc(C(F)(F)F)cc1[C@@H]1CC[C@@H]2C1=NO[C@@H]2c1cc(C(F)(F)F)cc(C(F)(F)F)c1` [Example 1A, 4-(5-(2-((3S,3aR,6S)-3-(3,5-bis(trifluoromethyl)phenyl)-3a,4,5,6-tetrahydro-3H-cyclopenta[c]isoxazol-6-yl)-4-(trifluoromethyl)phenyl)-6-methoxypyridin-3-yl)-3-methylbenzoic acid] showed an IC50 of 70 nM.
With `COc1ncc(-c2ccc(C(=O)O)cc2C)cc1-c1ccc(C(F)(F)F)cc1[C@H]1CC[C@H]2C1=NO[C@H]2c1cc(C(F)(F)F)cc(C(F)(F)F)c1` [Example 1B, 4-(5-(2-((3R,3aS,6R)-3-(3,5-bis(trifluoromethyl)phenyl)-3a,4,5,6-tetrahydro-3H-cyclopenta[c]isoxazol-6-yl)-4-(trifluoromethyl)phenyl)-6-methoxypyridin-3-yl)-3-methylbenzoic acid] the IC50 was 10000 nM.
Work on `COc1ccc(-c2ccc(C(=O)O)cc2C)cc1-c1cnc(C(F)(F)F)cc1[C@@H]1CC[C@@H]2C1=NO[C@@H]2c1cc(C(F)(F)F)cc(C(F)(F)F)c1` [Example 2A, 3′-(4-((3S,3aR,6S)-3-(3,5-bis(trifluoromethyl)phenyl)-3a,4,5,6-tetrahydro-3H-cyclopenta[c]isoxazol-6-yl)-6-(trifluoromethyl)pyridin-3-yl)-4′-methoxy-2-methyl-[1,1′-biphenyl]-4-carboxylic acid] yielded an IC50 of 1590 nM.
Molecule `COc1ccc(-c2ccc(C(=O)O)cc2C)cc1-c1cnc(C(F)(F)F)cc1[C@H]1CC[C@H]2C1=NO[C@H]2c1cc(C(F)(F)F)cc(C(F)(F)F)c1` [Example 2B, 3′-(4-((3R,3aS,6R)-3-(3,5-bis(trifluoromethyl)phenyl)-3a,4,5,6-tetrahydro-3H-cyclopenta[c]isoxazol-6-yl)-6-(trifluoromethyl)pyridin-3-yl)-4′-methoxy-2-methyl-[1,1′-biphenyl]-4-carboxylic acid] has an IC50 of 10000 nM.

Tested on: not given
Assay: not given
Conditions: patients treated with anacetrapib along with baseline statin therapy, compared with just a statin; cited from earlier work
For `COc1cc(F)c(C(C)C)cc1-c1ccc(C(F)(F)F)cc1CN1C(=O)O[C@H](c2cc(C(F)(F)F)cc(C(F)(F)F)c2)[C@@H]1C` [Anacetrapib], the “decrease of LDL-C” value is listed as 40% and the “increase of HDL-C” value is listed as 138%.
